Data taken from patent US20050220715A1, “Methods and compositions for improving drug safety” (Lotus Pharmaceutical Co., Ltd., priority 2004, published 2005).

What was measured:
[1] = RU-486 and emetine composition pharmacokinetics study (RU-486 blood concentrations by HPLC); assay type: in vivo; conditions: human, plasma, po, one tablet (10 mg RU-486) orally, eight subjects per group
Description: Experiment 4: RU-486 and Emetine Composition Pharmacokinetics Studies
The studies were carried out with two test groups in parallel. The first group used the composite tablets according to preparation I described below (10 mg RU-486 and 8.4 mg emetine). The control group used tablets containing only 10 mg RU-486. The two types of tablets were similarly prepared, and they had the same appearance. A total of sixteen test subjects were involved, eight in each group. Each test subject was given one pill and blood samples were collected at 0, 0.33, 0.5, 0.75, 1, 1.5, 2, 3, 4, 6, 8, 12, 24, 48, 72, 96, and 120 hours for the determination of RU-486 concentrations in order to calculate Cmax, Tmax, AUC0-120, AUC0-∞, and T1/2 pharmacokinetics parameters.
Experiment 5: Analysis of Pharmacokinetics Samples
RU-486 blood concentration determinations: The analysis used calibrated HPLC. Calibration was performed for a concentration range from 5 to 5000 ng/ml. The internal standard for the analysis was metoclopramide, at 20 ng/ml, 400 ng/ml, and 4000 ng/ml as quality control. The lowest detectable concentration (LOQ) is 5 ng/ml.
Plasma sample preparation: Plasma (0.2 ml) was placed in a test tube, to which metoclopramide (25 μL; 7.5 ng/μL) was added as internal standard, followed by 50 μL of 0.2 M K2HPO4. The mixture was mixed by shaking for 30 seconds. Then, 3 ml of tert-butyl methyl ether was added as the extraction reagent. The mixture was mixed by shaking for 60 seconds before centrifuged at 3,000 rpm for 5 minutes. The upper clear solution was removed and placed into another test tube. This clear solution was dry with a stream of N2. To the dried residue, 200 μL of mobile phase was added. The tube was shaken for 60 seconds. Each injection used 30 μL of sample.

[2] = system: pregnancy; conditions: RU-486 at 50 mg or 10 mg; cited from earlier work
[3] = system: pregnancy; conditions: cited from earlier work
[4] = system: menstrual cycle; conditions: RU-486 given late in the follicular phase; cited from earlier work

- Tmax [1]: 0.91 ± 0.19 h
- AUC(0-t) ([1]; read-out: AUC0-120 of RU-486): 8720 ± 1470 ng·h/mL
- AUC(0-inf) ([1]; read-out: AUC0-∞ of RU-486): 9420 ± 1550 ng·h/mL
- half-life ([1]; read-out: T1/2 of RU-486 (converted)): 35.2 ± 2.86 h
SMILES: CC#C[C@]1(O)CC[C@H]2[C@@H]3CCC4=CC(=O)CCC4=C3[C@@H](c3ccc(N(C)C)cc3)C[C@@]21C [Mifepristone, 17β-hydroxy-11β-(4-dimethylaminophenyl)-17α-(1-propynyl)-estra-4,9-dien-3-one]
- morning after pregnancy prevention effect [2]: same effect as 500 mg
- result with abortion ([3]; 200 mg or 150 mg of RU-486): good results with abortion
- success rate of early termination of pregnancy ([3]; 600 mg RU-486 and 400 mg misprostol, within the first 49 days of pregnancy): 97%
- prolongation of the follicular phase [4]: 10 to 15 days
